From patent US20050026911A1, “Benzotriazapinone salts and methods for using same” (priority 2003, published 2005)

Tests used:
gastrin (CCK2) receptors [1] = biological target: T1, gastrin (CCK2) receptors (Rattus norvegicus, UniProt P30553); experiment: gastrin (CCK2) antagonist activity in an immature rat stomach assay; details: pentagastrin dose-response curves, acid secretion, read-out: pKB rat stomach (converted)
T1 construct: The stomach was excised and flushed with ca. 1 ml of unbuffered physiological saline solution; from tissue; host or cells: isolated whole stomach of immature rats (ca. 21 days old)
T1 sequence (P30553 1-452): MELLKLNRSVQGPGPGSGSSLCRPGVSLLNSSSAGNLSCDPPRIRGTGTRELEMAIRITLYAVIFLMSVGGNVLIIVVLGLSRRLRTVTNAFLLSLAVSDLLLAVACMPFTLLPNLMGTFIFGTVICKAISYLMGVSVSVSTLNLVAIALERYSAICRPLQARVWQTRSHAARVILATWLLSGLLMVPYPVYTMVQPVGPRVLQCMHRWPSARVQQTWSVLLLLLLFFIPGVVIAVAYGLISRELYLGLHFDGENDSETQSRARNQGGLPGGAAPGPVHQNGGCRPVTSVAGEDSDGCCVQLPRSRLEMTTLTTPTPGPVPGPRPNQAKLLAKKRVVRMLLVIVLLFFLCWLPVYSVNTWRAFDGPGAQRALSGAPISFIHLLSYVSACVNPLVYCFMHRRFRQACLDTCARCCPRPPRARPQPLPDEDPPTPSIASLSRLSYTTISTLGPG
In short: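 Pentagastrin dose-response curves were run cumulatively 60 min after drug went into the serosal bath, itself after 120 min stabilisation. Preparation: perfused stomach from rats ca. 21 days old (33-50 g), with unbuffered saline under 100% O2 at 1 ml min^−1 and perfusate pH monitored.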

[2] = biological target: T2, human gastrin (CCK2) receptors (Homo sapiens, UniProt P32239); experiment: [125I]-BH-CCK-8S binding at human gastrin (CCK2) receptors cloned into an NIH3T3 cell line; details: for pKi ± s.e.mean: displacement of [125I]-BH-CCK-8S, hCCK2R NIH3T3 clone 7 cell membranes; for Ki: read-out: pKi ± s.e.mean (converted)
T2 construct: amplified by PCR (polymerase chain reaction) from the start codon to the stop codon; expressed in transfected cells
T2 sequence (P32239 1-447): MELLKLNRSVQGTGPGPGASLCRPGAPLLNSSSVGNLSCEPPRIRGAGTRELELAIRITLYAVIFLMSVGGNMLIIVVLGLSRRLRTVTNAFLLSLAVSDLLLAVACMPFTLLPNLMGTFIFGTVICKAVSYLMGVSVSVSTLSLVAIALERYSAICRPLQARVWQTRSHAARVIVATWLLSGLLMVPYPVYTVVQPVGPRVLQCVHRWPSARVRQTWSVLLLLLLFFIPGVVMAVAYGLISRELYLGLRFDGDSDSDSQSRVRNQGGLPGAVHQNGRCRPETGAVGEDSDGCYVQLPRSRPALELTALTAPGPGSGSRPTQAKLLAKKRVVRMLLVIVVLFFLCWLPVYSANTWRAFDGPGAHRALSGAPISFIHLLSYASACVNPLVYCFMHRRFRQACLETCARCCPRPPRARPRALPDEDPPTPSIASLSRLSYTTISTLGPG
Experimental: NIH3T3 cells from (ECACC) were cultured in Dulbecco's modified Eagle's medium (DMEM) (Invitrogen), containing 2 mM Glutamax I (Invitrogen), 10% heat inactivated newborn calf serum (Invitrogen). Cells (4×10^5) were seeded into 35 mm×10 mm dishes (Corning) and transfected using the Transfast™ reagent (Promega Corp.) according to the manufacturers instructions using 10 μg of the hCCK2R plasmid DNA at a ratio of 1:1 (DNA:Transfast™ reagent). Untransfected cells and cells transfected with vector only were also prepared as controls. After 48 h the cells were trypsinised using standard techniques (Culture of Animal Cells, A Manual of Basic Techniques 4th Ed, R. Ian Freshney) and dilutions were plated on 35 mm×10 mm dishes in media containing 800 μg/ml G-418 (Invitrogen). Cells were selected for 2 weeks until individual, separate colonies appeared. […] Using cloning rings and trypsinisation, according to standard techniques (Culture of Animal Cells, A Manual of Basic Techniques 4th Ed, R. Ian Freshney), individual colonies were picked from plates containing cells transfected with the vector only and cells transfected with the hCCK2R plasmid construct. The cells were expanded and analysed by radioligand binding analysis (see below).
Cultured clone 7 cells were stored as frozen pellets at −70° C. until required. Cell pellets were thawed in CCK2 assay buffer ((mM): 10 Hepes; 130 NaCl; 5 MgCl2; 4.7 KCl; 1 EGTA (pH7.2 at 21° C.) with 0.125 g Bacitracin added to each litre), and homogenised using a Polytron (4×1 s). The resulting membrane preparation was centrifuged at 39,800 g for 15 min at 4° C. Each cell pellet was re-suspended in fresh buffer and re-centrifuged as above. The final pellet was re-suspended by homogenisation (Teflon-in-glass), to the appropriate membrane concentration.
The assays were terminated by rapid filtration through pre-soaked Whatman GF/B filters which were washed (3×3 ml) with ice-cold 50 mM Tris HCl (pH7.4 @ 4° C.). Filters were transferred to plastic gamma counter vials and bound radioactivity determined by counting (1 min) in a Clini-gamma counter.
Saturation data were analysed using the curve-fitting programmes, Radlig and Ligand.
Briefly, dilution and addition of test compounds, radioligand and cell membranes were performed using a Beckman Biomek 2000. The ability of compounds to inhibit the specific binding of to hCCK2 receptors was determined in triplicate over a range of concentrations at half-log intervals. Total and non-specific binding was determined for each compound. Each compound was tested in a minimum of three experiments. Competition data were fitted to the Hill equation using Graph-pad Prism software to obtain estimates of the IC50 (mid-point location parameter) and nH (mid-point slope parameter). Dissociation constants (KI) were determined using the Cheng & Prusoff equation (1973) to correct for the receptor occupancy by the radioligand.

gastrin (CCK2) receptors [3] = biological target: T1, gastrin (CCK2) receptors; details: rat stomach assay; Kalindjian et al., J. Med. Chem. 1994; cited from earlier work
CCK2 receptor = biological target: T3, CCK2 receptor (Rattus norvegicus, UniProt P30553); details: rat cortical membranes; Nishida et al. 1994; cited from earlier work
T3 construct: host or cells: rat cortical membranes
T3 sequence (P30553 1-452): T1 sequence (P30553 1-452)

Structure (SMILES) | Kb (gastrin (CCK2) receptors [1]) [nM] | Ki [2] [nM] | also measured
O=C(O)CSc1cccc(NC(=O)CN2N=C(C3CCCCC3)c3ccccc3N(CC(=O)C3CCCC3)C2=O)c1 [Example 58, (3-{2-[5-Cyclohexyl-1-(2-cyclopentyl-2-oxo-ethyl)-2-oxo-1,2-dihydro-3H-1,3,4-benzotriazepin-3-yl]-acetylamino}-phenylsulfanyl)-acetic acid] | 1.48 |  | pKi ± s.e.mean [2]: 9.48 ± 0.08
Cc1cccc(NC(=O)N[C@@H]2N=C(c3ccccc3)c3ccccc3N(C)C2=O)c1 [L-365,260] |  |  | affinity pKB for the CCK2 receptor (gastrin (CCK2) receptors [3]): 7.61±0.12
O=C(O)CCc1cccc(NC(=O)CN2N=C(C3CCCCC3)c3ccccc3N(CC(=O)C3CCCC3)C2=O)c1 [Example 128, 3-(3-{2-[5-Cyclohexyl-1-(2-cyclopentyl-2-oxo-ethyl)-2-oxo-1,2-dihydro-3H-1,3,4-benzotriazepin-3-yl]-acetylamino}-phenyl)-propionic acid] | 1.23 | 0.204 | 
O=C(CN1N=C(C2CCCCC2)c2ccccc2N(CC(=O)C2CCCC2)C1=O)Nc1cccc(C(=O)O)c1 [Example 22, 3-{2-[5-Cyclohexyl-1-(2-cyclopentyl-2-oxo-ethyl)-2-oxo-1,2-dihydro-3H-1,3,4-benzotriazepin-3-yl]-acetylamino}-benzoic acid] | 1.86 | 0.355 | 
O=C(O)Cc1cccc(NC(=O)CN2N=C(C3CCCCC3)c3ccccc3N(CC(=O)C3CCCC3)C2=O)c1 [Example 56, (3-{2-[5-Cyclohexy-1-(2-cyclopentyl-2-oxo-ethyl)-2-oxo-1,2-dihydro-3H-1,3,4-benzotriazepin-3-yl]-acetylamino}-phenyl)-acetic acid] | 0.741 | 0.162 | 
CNc1cccc(NC(=O)N[C@@H]2N=C(c3ccccn3)c3ccccc3N(CC(=O)C(C)(C)C)C2=O)c1 [YF476] |  |  | affinity pKi for the CCK2 receptor (CCK2 receptor): 10.17+0.03
O=C(CN1N=C(C2CCCCC2)c2ccccc2N(CC(=O)C2CCCC2)C1=O)Nc1cccc(-c2nc(=O)o[nH]2)c1 [Example 121, 2-[5-Cyclohexyl-1-(2-cyclopentyl-2-oxo-ethyl)-2-oxo-1,2-dihydro-3H-1,3,4-benzotriazepin-3-yl]-N-[3-(5-oxo-Z 5-dihydro-[1,2,4]oxadiazol-3-yl)-phenyl]-acetamide] | 0.295 | 0.11 | 
CN1C(=O)N(CC(=O)Nc2ccccc2)[N+]([O-])=C(C2CCCCC2)c2ccccc21 [Example 160, 2-(5-Cyclohexyl-1-methyl-2-oxo-4-oxy-1,2-dihydro-3H-1,3,4-benzotriazepin-3-yl)-N-phenyl-acetamide] | 2.82 | 3240 | 
Cc1cccc(NC(=O)N[C@@H]2N=C(c3ccccc3)c3ccccc3N(CC(=O)c3ccccc3C)C2=O)c1 [YM022, reference compound] |  |  | pKi ± s.e.mean [2]: 10.19 ± 0.03
CC(C)(C)C(=O)CN1C(=O)N(CC(=O)Nc2cccc(-c3nc(=O)o[nH]3)c2)N=C(C2CCCCC2)c2ccccc21 [Example 59, 2-[5-Cyclohexyl-1-(3,3-dimethyl-2-oxo-butyl)-2-oxo-1,2-dihydro-3H-1,3,4-benzotriazepin-3-yl]-N-[3-(5-oxo-Z5-dihydro-[1,2,4]oxadiazol-3-yl)-phenyl]-acetamide] | 9.55 | 0.219 | 
